Measurements as given in BindingDB's records for doi:10.1016/S0960-894X(01)80103-7 (1994).

Assays:
[1] = In vitro thromboxane receptor antagonist activity was determined by inhibition of U-46619 induced aggregation of washed human platelets
[2] = as above; remark: listed apart in the source
[3] = as above; remark: listed apart in the source

Row | IC50 [1] [µM] | IC50 [2] [µM] | IC50 [3] [µM] | Structure (SMILES)
1 | 0.022 | 0.046 |  | O=C(O)CC/C=C\CC[C@@H]1[C@@H](c2cccnc2)SC[C@H]1OCc1ccc(-c2ccccc2)cc1 [(Z)-7-[(2S,3S,4S)-4-(Biphenyl-4-ylmethoxy)-2-pyridin-3-yl-tetrahydro-thiophen-3-yl]-hept-4-enoic acid]
2 |  |  | 0.024 | O=C(O)CC/C=C\CC[C@H]1[C@@H](OCc2ccc(-c3ccccc3)cc2)CS(=O)(=O)[C@@H]1c1cccnc1 [(Z)-7-[(2S,3S,4R)-4-(Biphenyl-4-ylmethoxy)-1,1-dioxo-2-pyridin-3-yl-tetrahydro-1lambda*6*-thiophen-3-yl]-hept-4-enoic acid]
3 |  |  | 0.018 | O=C(O)CC/C=C\CC[C@@H]1[C@@H](c2cccnc2)S(=O)(=O)C[C@H]1OCc1ccc(-c2ccccc2)cc1 [(Z)-7-[(2S,3S,4S)-4-(Biphenyl-4-ylmethoxy)-1,1-dioxo-2-pyridin-3-yl-tetrahydro-1lambda*6*-thiophen-3-yl]-hept-4-enoic acid]
4 |  |  | 0.046 | O=C(O)CC/C=C\CC[C@H]1[C@@H](OCc2ccc(-c3ccccc3)cc2)CS[C@@H]1c1cccnc1 [(Z)-7-[(2S,3S,4R)-4-(Biphenyl-4-ylmethoxy)-2-pyridin-3-yl-tetrahydro-thiophen-3-yl]-hept-4-enoic acid]
5 |  |  | 0.228 | O=C(O)CCC/C=C\C[C@@H]1[C@@H](c2cccnc2)SC[C@H]1OCc1ccc(-c2ccccc2)cc1 [(Z)-7-[(2S,3S,4S)-4-(Biphenyl-4-ylmethoxy)-2-pyridin-3-yl-tetrahydro-thiophen-3-yl]-hept-5-enoic acid]

Further lines, the compound ahead of its results:

Row | Structure (SMILES) | IC50 [1] [µM] | IC50 [2] [µM] | IC50 [3] [µM]
6 | O=C(O)CC/C=C\CC[C@H]1[C@@H](OCc2ccc(-c3ccccc3)cc2)C[S+]([O-])[C@@H]1c1cccnc1 (stereo partly drawn) [(Z)-7-[(2S,3S,4R)-4-(Biphenyl-4-ylmethoxy)-1-oxo-2-pyridin-3-yl-tetrahydro-1lambda*4*-thiophen-3-yl]-hept-4-enoic acid] |  |  | 0.057
7 | O=C(O)CC/C=C\CC[C@@H]1[C@@H](N2CCCCC2)[C@@H](O)C[C@@H]1OCc1ccc(-c2ccccc2)cc1 [GR 32191] |  |  | 0.012
8 | O=C(O)CC/C=C\CC[C@@H]1[C@@H](c2cccnc2)[S@+]([O-])C[C@H]1OCc1ccc(-c2ccccc2)cc1 |  |  | 0.077
9 | O=C(O)CC/C=C\CC[C@@H]1[C@@H](c2cccnc2)[S@@+]([O-])C[C@H]1OCc1ccc(-c2ccccc2)cc1 |  |  | 0.105
